What is called inhibition is the change of the read-out against control, counted positive when it falls.

The target in one assay is T1, MC1R receptors (Mus musculus, UniProt Q01727).
T1 construct: isolated from cell membranes of mouse melanocytes of the B16/F1 line; endogenous in cells; host or cells: B16/F1 mouse melanocyte (melanoma) cell membranes
In words: Affinity study on MC1R receptors ([125I]NDP-α-MSH binding). The note with it: for Activity relative to the control (percentage of specific binding): [125I]NDP-α-MSH 0.05 nM, 90 minutes at 22° C.; for inhibition at 100 µg/mL / inhibition at 1000 µg/mL: read-out: Inhibition of specific binding by the test products; for displacement of the specific binding of the ligand [125I]NDP-α-MSH: at the test concentrations (0.1 mg/ml and 1 mg/ml). The procedure:
MC1R receptors are isolated from cell membranes of mouse melanocytes of the B16/F1 line via the method described in: Siegrist W., Oestreicher M., Stutz M., Girard J. and […]., 8, 1988, 323-343”. […] Sodium hydroxide has no effect on the parameter studied. The MC1R receptors are incubated, in the presence or absence of these products, with an iodine-125 labeled radioactive ligand, the […]-α-melanocyte […] hormone [^125I]NDP-α-MSH at a concentration of 0.05 nM, for 90 minutes at 22° C. Control cultures are incubated, in the absence of product, and in the presence of the radioactive ligand. Each test is performed in triplicate. After incubation for 90 minutes, the cell membranes are rapidly filtered and the filters are washed several times with cold buffer. The amount of radioactive ligand bound to the MC1R receptors is measured using a scintillation counter (Topcount, Packard). The results given in the table below are the means of the three tests performed for each of the products. They are expressed as a percentage of specific binding relative to the control group and as a percentage of inhibition of this binding.

The test system of the next assay is endogenous tyrosinase. In words: Phosphorylated tyrosinase activity in B16/F1 melanocyte lysates. The class given is cell-based, mouse. The note with it: 72 hours; for Tyrosinase activity: control 9.8 ± 0.3 IU/ml. On the procedure:
Mouse melanocytes of the B16/F1 line are inoculated in 96-well culture plates at a density of 1500 cells/well. The cells are cultured in a culture medium (MCM medium) at 37° C. under a humid atmosphere containing 5% CO2. The cells are used at 60% of confluence, i.e. 4 days after inoculation.
The MCM medium has the following composition: DMEM medium (Dulbecco's Modified Eagle's Medium) containing 4.5 g/l of glucose supplemented with L-glutamine (2 mM), penicillin (50 IU/ml), streptomycin (50 μg/ml) and fetal calf serum (10% v/v).
N-Undecylenoylphenylalanine is diluted to 4 mg/ml in decinormal aqueous sodium hydroxide solution. […]
The melanocyte cultures are incubated in the presence of the test product or of the reference products for 72 hours at 37° C., under a humid atmosphere containing 5% CO2.
Control cultures are incubated, in the absence of product, in the MCM medium. These control cultures are prepared on each culture plate.
Each test is performed six times.
After incubation for 72 hours, the second portion of the cell carpet (n=3) is rinsed with PBS. The cells are lyzed with Triton™ X100 at a concentration of 0.1% (w/v) for 30 minutes at room temperature. The activity of the endogenous tyrosinase is evaluated by adding 0.1% (w/v) of L-dopa, followed by incubation for 3 hours at 37° C. in the absence of air and light. The dopaquinone formed by the reaction between the tyrosinase and the L-dopa is measured by spectrophotometry at 450 nm. A calibration range of purified tyrosinase is prepared in parallel.
The results are expressed as IU/ml of tyrosinase activity and as a percentage of inhibition relative to the control group.

The test system of assay [1] is B16/F1 melanocyte cultures. In words: Extracellular melanin content in B16/F1 melanocyte cultures. The class given is cell-based, mouse. The conditions noted are these: 72 hours; for Extracellular melanin: control 43 ± 11 μg/ml. The procedure:
Mouse melanocytes of the B16/F1 line are inoculated in 96-well culture plates at a density of 1500 cells/well. […] The cells are used at 60% of confluence, i.e. 4 days after inoculation. The MCM medium has the following composition: […] N-Undecylenoylphenylalanine is diluted to 4 mg/ml in decinormal aqueous sodium hydroxide solution. It is tested at 40 μg/ml in the MCM medium. Sodium hydroxide has no effect on the parameters analyzed. […] Given its toxicity, it is not tested at 40 μg/ml. […] Control cultures are incubated, in the absence of product, in the MCM medium. These control cultures are prepared on each culture plate. Each test is performed six times. After incubation for 72 hours, the incubation media of the cells (n=6) are taken up and stored at -80° C. until the time of evaluation of the effects. The extracellular melanin is quantified by spectrophotometry at 450 nm. A melanin calibration range is prepared in parallel. The results are expressed as μg/ml of extracellular […] a percentage of inhibition relative to the control group.

The test system of assay [2] is B16/F1 melanocyte cultures. In words: Intracellular melanin content in B16/F1 melanocyte cultures. The note with it: 72 hours; for Intracellular melanin obtained: control 20 ± 4 μg/ml. Format: cell-based, mouse. On the procedure:
Mouse melanocytes of the B16/F1 line are inoculated in 96-well culture plates at a density of 1500 cells/well. […] The cells are used at 60% of confluence, i.e. 4 days after inoculation. The MCM medium has the following composition: […] N-Undecylenoylphenylalanine is diluted to 4 mg/ml in decinormal aqueous sodium hydroxide solution. It is tested at 40 μg/ml in the MCM medium. Sodium hydroxide has no effect on the parameters analyzed. […] Given its toxicity, it is not tested at 40 μg/ml. […] Control cultures are incubated, in the absence of product, in the MCM medium. These control cultures are prepared on each culture plate. Each test is performed six times. After incubation for 72 hours, a portion of the cell carpet (n=3) is rinsed with phosphate-buffered saline (PBS; pH=7.4), the composition of which is as follows: NaCl: 8 g/l, Na2HPO4: 1.15 g/l; […] The intracellular melanin is quantified by spectrophotometry at 450 nm. A melanin calibration range is prepared in parallel. The results are expressed as μg/ml of intracellular melanin and as a percentage of inhibition relative to the control group.

The subject of another assay is Protein kinase A. In words: Study of protein kinase A activity (phosphorylation of histone H1). The class given is biochemical, bovine. The conditions noted are these: 1 mg/ml; for Enzymatic activity relative to the control (protein kinase A): cAMP 3 μM, histone H1 200 μg/ml, 20 minutes at 30° C. On the procedure:
The influence of N-undecylenoylphenylalanine, kojic acid and arbutin on the phosphorylation of […] with protein kinase A (PK A) was compared. Protein kinase A is extracted from bovine brains via the method described in: “[…]., Sano M., Hayashi K., Inoue T., Naito […]. Biol. Chem., 265, 1990, 5267-5272”. […] Sodium hydroxide has no effect on the parameter studied. […] Control cultures are incubated, in the absence of product, and in the presence of radioactive ATP and histone H1. Each test is performed in triplicate. […] The results given in the table below are the means of the three tests performed for each of the products. They are expressed as a percentage of enzymatic activity relative to the control group and as a percentage of inhibition.

The mark [3] stands for this setting: Mus musculus, B16-F1, at 40 μg/ml, read-out: Inhibition of extracellular melanin production.
[4] abbreviates: Mus musculus, B16-F1, at 40 μg/ml, read-out: Inhibition of intracellular melanin production.

T1 sequence (Q01727 whole entry): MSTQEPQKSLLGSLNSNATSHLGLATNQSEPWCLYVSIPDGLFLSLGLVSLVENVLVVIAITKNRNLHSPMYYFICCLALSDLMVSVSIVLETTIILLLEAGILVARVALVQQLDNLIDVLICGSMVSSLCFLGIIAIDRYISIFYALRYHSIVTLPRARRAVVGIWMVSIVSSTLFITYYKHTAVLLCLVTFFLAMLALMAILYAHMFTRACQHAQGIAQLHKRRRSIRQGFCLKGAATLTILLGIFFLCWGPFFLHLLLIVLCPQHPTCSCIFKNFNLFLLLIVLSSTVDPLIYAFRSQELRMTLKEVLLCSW

On to `OC[C@H]1O[C@@H](Oc2ccc(O)cc2)[C@H](O)[C@@H](O)[C@@H]1O` [Arbutin, arbutin], for which, at MC1R receptors (at 0.1 mg/ml), the “Activity relative to the control (percentage of specific binding)” value is recorded as 100.80 ± 0.55% and the inhibition at 100 µg/mL was 0%. In addition, at MC1R receptors (at 1 mg/ml), the “Activity relative to the control (percentage of specific binding)” value was found to be 96.30 ± 4.16% and the inhibition at 1000 µg/mL is 3.7%. At MC1R receptors, the “displacement of the specific binding of the ligand [125I]NDP-α-MSH” value is reported as “neither arbutin nor kojic acid, which are the reference depigmenting compounds, displaces the specific binding”. Further, in the assay on endogenous tyrosinase (at 40 μg/ml), the “Inhibition of tyrosinase activity” value was determined as 23% and the Tyrosinase activity is listed as 7.6 ± 1.1 IU/ml. Besides, the inhibition at 40 µg/mL in assay [1] (setting [3]) stood at 47%. Further, the Extracellular melanin in assay [1] (at 40 μg/ml) worked out at 23 ± 6 µg/mL. In assay [2] (setting [4]), the inhibition at 40 µg/mL is 19%. The molecule also yielded an Intracellular melanin obtained in assay [2] (at 40 μg/ml) of 16 ± 2 µg/mL. Moreover, in the assay with Protein kinase A, the “Inhibition of protein kinase A activity” value came to 9.1% and the “Enzymatic activity relative to the control (protein kinase A)” value was determined as 90.9 ± 8.4%.
`Oc1ccc(O)cc1` [Hydroquinone, hydroquinone]: in the assay on endogenous tyrosinase (at 5 μg/ml), the “Inhibition of tyrosinase activity” value was 69% and the Tyrosinase activity amounted to 3.0 ± 0.3 IU/ml. In addition, the inhibition at 5 µg/mL in assay [1] (Mus musculus, B16-F1, at 5 μg/ml, read-out: Inhibition of extracellular melanin production) was found to be 85%. Moreover, the Extracellular melanin in assay [1] (at 5 μg/ml) turned out to be 7 ± 1 µg/mL. Besides, the inhibition at 5 µg/mL in assay [2] (Mus musculus, B16-F1, at 5 μg/ml, read-out: Inhibition of intracellular melanin production) came to 100%. In addition, the Intracellular melanin obtained in assay [2] (at 5 μg/ml) worked out at 0.2 ± 0.1 µg/mL.
For `O=c1cc(CO)occ1O` [Kojic acid, kojic acid], the inhibition at 100 µg/mL on MC1R receptors (at 0.1 mg/ml) is 0%. At MC1R receptors (at 1 mg/ml), the inhibition at 1000 µg/mL came out at 0%. The “displacement of the specific binding of the ligand [125I]NDP-α-MSH” value at MC1R receptors is listed as “neither arbutin nor kojic acid, which are the reference depigmenting compounds, displaces the specific binding”. The inhibition at 40 µg/mL worked out at 70% in assay [1] (setting [3]) and 17% in assay [2] (setting [4]). The same molecule showed an Extracellular melanin in assay [1] (at 40 μg/ml) of 13 ± 2 µg/mL. Besides, the Intracellular melanin obtained in assay [2] (at 40 μg/ml) amounted to 17 ± 1 µg/mL. The “Inhibition of protein kinase A activity” value with Protein kinase A worked out at 0%.
`C=CCCCCCCCCC(=O)NC(Cc1ccccc1)C(=O)O` (stereo not drawn) [N-Undecylenoylphenylalanine, N-(ω-undecylenoyl)phenylalanine]: on MC1R receptors (at 0.1 mg/ml), the “Inhibition of specific binding by the test products” value is 42.3%, the “Activity relative to the control (percentage of specific binding)” value amounted to 57.70 ± 2.38% and the inhibition at 100 µg/mL came out at 42%. Moreover, at MC1R receptors (at 1 mg/ml), the “Inhibition of specific binding by the test products” value worked out at 95.8%, the “Activity relative to the control (percentage of specific binding)” value is listed as 4.20 ± 0.86% and the inhibition at 1000 µg/mL was found to be 96%. Moreover, in the assay on endogenous tyrosinase (at 40 μg/ml), the “Inhibition of tyrosinase activity” value was 67% and the Tyrosinase activity turned out to be 3.2 ± 0.6 IU/ml. The inhibition at 40 µg/mL in assay [1] (setting [3]) was determined as 72%. The Extracellular melanin in assay [1] (at 40 μg/ml) was found to be 12 ± 1 µg/mL. Besides, the inhibition at 40 µg/mL in assay [2] (setting [4]) was 66%. Also, in assay [2] (at 40 μg/ml), the Intracellular melanin obtained came out at 7 ± 3 µg/mL. Also, in the assay with Protein kinase A, the “Inhibition of protein kinase A activity” value turned out to be 100% and the “Enzymatic activity relative to the control (protein kinase A)” value is reported as −0.4 ± 0.3%. Also, in the assay on Protein kinase A (listed as N-undecylenoylphenylalanine), the “Inhibition of protein kinase A activity” value is listed as “totally inhibits”.
